Like-named read-outs stand apart in the source and are kept apart here.
Target: NR1/NR2A (Homo sapiens (Human), UniProt Q05586+Q12879)
Assay: FDSS Ca2+ influx inhibition assay in HEK293 cells expressing NR1/NR2A
Type: cell-based
Details: 3 μM glutamate, 3 μM glycine, 1 mM Ca2+
Summary of the method: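 Fluo-8-loaded HEK293 NR1/NR2A cells preincubated 10 min with compound at 10 μM final (0.1% DMSO) in Ca2+/Mg2+-free HBSS with 20 mM HEPES. Stimulated with 3 μM glutamate, 3 μM glycine, 1 mM Ca2+; FDSS recording for 3 min, end/baseline fluorescence ratio compared with MK801.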

[1] = inhibition relative to MK801, read-out: NR2A IC50

NR1/NR2A, sequence (Q12879 23-1464, other chains not shown): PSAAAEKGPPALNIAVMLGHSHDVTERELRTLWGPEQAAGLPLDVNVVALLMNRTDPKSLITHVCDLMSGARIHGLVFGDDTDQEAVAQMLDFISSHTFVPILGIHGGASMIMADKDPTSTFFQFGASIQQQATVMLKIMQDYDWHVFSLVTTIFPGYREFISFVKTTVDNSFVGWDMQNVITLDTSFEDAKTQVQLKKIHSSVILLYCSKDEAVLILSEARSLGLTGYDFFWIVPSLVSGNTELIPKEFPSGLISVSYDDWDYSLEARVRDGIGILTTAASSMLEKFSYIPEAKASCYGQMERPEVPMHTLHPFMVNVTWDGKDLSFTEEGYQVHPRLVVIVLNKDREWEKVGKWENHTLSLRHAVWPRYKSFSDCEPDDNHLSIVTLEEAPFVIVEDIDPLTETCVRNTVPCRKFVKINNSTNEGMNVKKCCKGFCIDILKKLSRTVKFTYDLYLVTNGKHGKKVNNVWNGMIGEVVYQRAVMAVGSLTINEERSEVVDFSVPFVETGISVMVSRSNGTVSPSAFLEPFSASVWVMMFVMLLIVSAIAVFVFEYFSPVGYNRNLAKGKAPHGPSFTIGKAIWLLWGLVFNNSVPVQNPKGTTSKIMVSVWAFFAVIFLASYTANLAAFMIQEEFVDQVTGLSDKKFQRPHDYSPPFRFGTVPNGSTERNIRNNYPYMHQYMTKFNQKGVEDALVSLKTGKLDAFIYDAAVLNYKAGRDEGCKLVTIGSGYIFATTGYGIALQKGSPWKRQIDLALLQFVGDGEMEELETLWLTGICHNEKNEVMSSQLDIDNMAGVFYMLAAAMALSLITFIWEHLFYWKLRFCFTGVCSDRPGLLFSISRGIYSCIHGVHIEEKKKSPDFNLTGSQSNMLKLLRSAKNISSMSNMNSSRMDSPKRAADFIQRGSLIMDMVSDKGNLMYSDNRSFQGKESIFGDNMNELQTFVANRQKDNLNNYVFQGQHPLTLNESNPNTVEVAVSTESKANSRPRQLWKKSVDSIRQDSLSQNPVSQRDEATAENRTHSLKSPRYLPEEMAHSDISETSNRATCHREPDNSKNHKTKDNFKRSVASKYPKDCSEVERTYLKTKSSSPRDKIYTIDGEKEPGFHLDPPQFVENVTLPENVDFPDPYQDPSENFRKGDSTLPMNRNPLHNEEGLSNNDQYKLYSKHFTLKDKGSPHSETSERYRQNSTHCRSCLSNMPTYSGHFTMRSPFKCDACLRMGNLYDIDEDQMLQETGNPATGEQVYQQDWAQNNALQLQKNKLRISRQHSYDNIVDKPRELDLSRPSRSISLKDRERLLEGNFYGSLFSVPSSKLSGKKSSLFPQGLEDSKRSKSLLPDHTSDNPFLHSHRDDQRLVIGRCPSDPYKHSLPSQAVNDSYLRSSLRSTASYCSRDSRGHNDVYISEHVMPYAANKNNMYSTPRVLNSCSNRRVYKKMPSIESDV

Work on `Cc1ncc(CNC(=O)c2cnc(CNC(=O)c3cccc(Cl)c3)cn2)s1` [5-{[(3-chlorophenyl)formamido]methyl}-N-[(2-methyl-1,3-thiazol-5-yl)methyl]pyrazine-2-carboxamide] yielded an IC50 [1] of 10 µM and an IC50 (read-out: Binned Activity) of over 10 µM.
`Cc1ncc(CNC(=O)c2cnc(CNC(=O)c3cccc(C#N)c3)c(C)n2)s1` [5-{[(3-cyanophenyl)formamido]methyl}-6-methyl-N-[(2-methyl-1,3-thiazol-5-yl)methyl]pyrazine-2-carboxamide] gave an IC50 [1] of 10 µM and an IC50 (read-out: Binned Activity) of over 10 µM.
With `Cc1ncc(CNC(=O)c2cnc(CNC(=O)c3cccc(C#N)c3)cn2)s1` [5-{[(3-cyanophenyl)formamido]methyl}-N-[(2-methyl-1,3-thiazol-5-yl)methyl]pyrazine-2-carboxamide] the IC50 [1] was 10 µM and the IC50 (read-out: Binned Activity) was over 10 µM.
With `Cc1ncc(CNC(=O)c2ccc(CNC(=O)c3cccc(C#N)c3)cn2)s1` [5-{[(3-cyanophenyl)formamido]methyl}-N-[(2-methyl-1,3-thiazol-5-yl)methyl]pyridine-2-carboxamide] the IC50 [1] was 10 µM and the IC50 (read-out: Binned Activity) was over 10 µM.
`Cc1ncc(CNC(=O)c2cnc(CNC(=O)c3cccc(F)c3)cn2)s1` [5-{[(3-fluorophenyl)formamido]methyl}-N-[(2-methyl-1,3-thiazol-5-yl)methyl]pyrazine-2-carboxamide] showed an IC50 [1] of 10 µM and an IC50 (read-out: Binned Activity) of over 10 µM.
`Cc1ncc(CNC(=O)c2ccc(CNC(=O)c3cccc(F)c3)cn2)s1` [5-{[(3-fluorophenyl)formamido]methyl}-N-[(2-methyl-1,3-thiazol-5-yl)methyl]pyridine-2-carboxamide] gave an IC50 [1] of 10 µM and an IC50 (read-out: Binned Activity) of over 10 µM.
With `Cc1ncc(CNC(=O)c2cnc(CNC(=O)c3cc(Cl)ccc3F)c(C)n2)s1` [5-{[(5-chloro-2-fluorophenyl)formamido]methyl}-6-methyl-N-[(2-methyl-1,3-thiazol-5-yl)methyl]pyrazine-2-carboxamide] the IC50 [1] was 10 µM and the IC50 (read-out: Binned Activity) was over 10 µM.
Compound `Cc1ncc(CNC(=O)c2cnc(CNC(=O)c3cc(Cl)ccc3F)cn2)s1` [5-{[(5-chloro-2-fluorophenyl)formamido]methyl}-N-[(2-methyl-1,3-thiazol-5-yl)methyl]pyrazine-2-carboxamide] has an IC50 [1] of 10 µM and an IC50 (read-out: Binned Activity) of over 10 µM.
With `Cc1ncc(CNC(=O)c2ccc(CNC(=O)c3cc(Cl)ccc3F)cn2)s1` [5-{[(5-chloro-2-fluorophenyl)formamido]methyl}-N-[(2-methyl-1,3-thiazol-5-yl)methyl]pyridine-2-carboxamide] the IC50 [1] was 10 µM and the IC50 (read-out: Binned Activity) was over 10 µM.
Compound `O=C(NC1CCS(=O)(=O)C1)c1ccc(CNS(=O)(=O)c2ccc(F)c(Cl)c2)nc1` (stereo not shown) [6-(3-chloro-4-fluorobenzenesulfon-amidomethyl)-N-(1,1-dioxo-1λ^6-thiolan-3-yl)pyridine-3-carboxamide] has an IC50 [1] of 10 µM and an IC50 (read-out: Binned Activity) of over 10 µM.
`O=C(NCc1ccno1)c1ccc(CNS(=O)(=O)c2ccc(F)c(Cl)c2)nc1` [6-(3-chloro-4-fluorobenzenesulfon-amidomethyl)-N-(1,2-oxazol-5-ylmethyl)pyridine-3-carboxamide] was tested, and the IC50 [1] was 10 µM and the IC50 (read-out: Binned Activity) was over 10 µM.
In the case of `O=C(NCc1cocn1)c1ccc(CNS(=O)(=O)c2ccc(F)c(Cl)c2)nn1` [6-(3-chloro-4-fluorobenzenesulfon-amidomethyl)-N-(1,3-oxazol-4-ylmethyl)pyridazine-3-carboxamide], the IC50 [1] is reported as 10 µM and the IC50 (read-out: Binned Activity) is reported as over 10 µM.
In the case of `O=C(NCc1cocn1)c1ccc(CNS(=O)(=O)c2ccc(F)c(Cl)c2)nc1` [6-(3-chloro-4-fluorobenzenesulfon-amidomethyl)-N-(1,3-oxazol-4-ylmethyl)pyridine-3-carboxamide], the IC50 [1] is reported as 10 µM and the IC50 (read-out: Binned Activity) is reported as over 10 µM.
For `O=C(NCc1nccs1)c1ccc(CNS(=O)(=O)c2ccc(F)c(Cl)c2)nc1` [6-(3-chloro-4-fluorobenzenesulfon-amidomethyl)-N-(1,3-thiazol-2-ylmethyl)pyridine-3-carboxamide], the IC50 [1] was 10 µM and the IC50 (read-out: Binned Activity) was over 10 µM.
`O=C(NCc1cncs1)c1ccc(CNS(=O)(=O)c2ccc(F)c(Cl)c2)nn1` [6-(3-chloro-4-fluorobenzenesulfon-amidomethyl)-N-(1,3-thiazol-5-ylmethyl)pyridazine-3-carboxamide] gave an IC50 [1] of 10 µM and an IC50 (read-out: Binned Activity) of over 10 µM.
Compound `O=C(NCc1cncs1)c1ccc(CNS(=O)(=O)c2ccc(F)c(Cl)c2)nc1` [6-(3-chloro-4-fluorobenzenesulfon-amidomethyl)-N-(1,3-thiazol-5-ylmethyl)pyridine-3-carboxamide] has an IC50 [1] of 10 µM and an IC50 (read-out: Binned Activity) of over 10 µM.
`O=C(NCc1ccco1)c1ccc(CNS(=O)(=O)c2ccc(F)c(Cl)c2)nn1` [6-(3-chloro-4-fluorobenzenesulfon-amidomethyl)-N-(furan-2-ylmethyl)pyridazine-3-carboxamide] was tested, and the IC50 [1] was 10 µM and the IC50 (read-out: Binned Activity) was over 10 µM.
`O=C(NCc1ccoc1)c1ccc(CNS(=O)(=O)c2ccc(F)c(Cl)c2)nn1` [6-(3-chloro-4-fluorobenzenesulfon-amidomethyl)-N-(furan-3-ylmethyl)pyridazine-3-carboxamide] showed an IC50 [1] of 10 µM and an IC50 (read-out: Binned Activity) of over 10 µM.
`O=C(NCc1cnccn1)c1ccc(CNS(=O)(=O)c2ccc(F)c(Cl)c2)nn1` [6-(3-chloro-4-fluorobenzenesulfon-amidomethyl)-N-(pyrazin-2-ylmethyl)pyridazine-3-carboxamide] showed an IC50 [1] of 10 µM and an IC50 (read-out: Binned Activity) of over 10 µM.
For `O=C(NCc1cnccn1)c1ccc(CNS(=O)(=O)c2ccc(F)c(Cl)c2)nc1` [6-(3-chloro-4-fluorobenzenesulfon-amidomethyl)-N-(pyrazin-2-ylmethyl)pyridine-3-carboxamide], the IC50 (read-out: Binned Activity) was 0.1 to 1 µM.
`O=C(NCc1ccccn1)c1ccc(CNS(=O)(=O)c2ccc(F)c(Cl)c2)nn1` [6-(3-chloro-4-fluorobenzenesulfon-amidomethyl)-N-(pyridin-2-ylmethyl)pyridazine-3-carboxamide] gave an IC50 [1] of 10 µM and an IC50 (read-out: Binned Activity) of over 10 µM.
`O=C(NCc1ccccn1)c1ccc(CNS(=O)(=O)c2ccc(F)c(Cl)c2)nc1` [6-(3-chloro-4-fluorobenzenesulfon-amidomethyl)-N-(pyridin-2-ylmethyl)pyridine-3-carboxamide] was tested, and the IC50 [1] was 10 µM and the IC50 (read-out: Binned Activity) was over 10 µM.
With `O=C(NCc1cccnc1)c1ccc(CNS(=O)(=O)c2ccc(F)c(Cl)c2)nn1` [6-(3-chloro-4-fluorobenzenesulfon-amidomethyl)-N-(pyridin-3-ylmethyl)pyridazine-3-carboxamide] the IC50 [1] was 10 µM and the IC50 (read-out: Binned Activity) was over 10 µM.
`O=C(NCc1cccnc1)c1ccc(CNS(=O)(=O)c2ccc(F)c(Cl)c2)nc1` [6-(3-chloro-4-fluorobenzenesulfon-amidomethyl)-N-(pyridin-3-ylmethyl)pyridine-3-carboxamide] gave an IC50 (read-out: Binned Activity) of over 10 µM.
`O=C(NCc1ccncc1)c1ccc(CNS(=O)(=O)c2ccc(F)c(Cl)c2)nn1` [6-(3-chloro-4-fluorobenzenesulfon-amidomethyl)-N-(pyridin-4-ylmethyl)pyridazine-3-carboxamide] gave an IC50 [1] of 10 µM and an IC50 (read-out: Binned Activity) of over 10 µM.
With `O=C(NCc1ccncc1)c1ccc(CNS(=O)(=O)c2ccc(F)c(Cl)c2)nc1` [6-(3-chloro-4-fluorobenzenesulfon-amidomethyl)-N-(pyridin-4-ylmethyl)pyridine-3-carboxamide] the IC50 [1] was 10 µM and the IC50 (read-out: Binned Activity) was over 10 µM.
For `O=C(NCc1ncccn1)c1ccc(CNS(=O)(=O)c2ccc(F)c(Cl)c2)nn1` [6-(3-chloro-4-fluorobenzenesulfon-amidomethyl)-N-(pyrimidin-2-ylmethyl)pyridazine-3-carboxamide], the IC50 [1] was 10 µM and the IC50 (read-out: Binned Activity) was over 10 µM.

— US9963434B2, “N-arylmethyl sulfonamide negative modulators of NR2A” (LUC THERAPEUTICS, priority 2013, dated 2018)
